Earlier results on one molecule are cited in patent publication US20100210586A1, “POMEGRANATE EXTRACTS, NUTRITIONAL PRODUCTS CONTAINING THEM AND THEIR USES” (PROBELTE PHARMA, S.A., priority 2007, published 2010).

The conditions of this data set: oral.

Turning to `O=c1oc2c(O)c(O)cc3c(=O)oc4c(O)c(O)cc1c4c23` [ellagic acid], the “absorption when administered orally” value was “poorly absorbed”.
